Columns and labels:
Renin [1] = biological target: T1, Renin (Homo sapiens, UniProt P00797); test: In vitro inhibition of renin in human plasma; format: cell-free
T1 sequence (P00797 whole entry): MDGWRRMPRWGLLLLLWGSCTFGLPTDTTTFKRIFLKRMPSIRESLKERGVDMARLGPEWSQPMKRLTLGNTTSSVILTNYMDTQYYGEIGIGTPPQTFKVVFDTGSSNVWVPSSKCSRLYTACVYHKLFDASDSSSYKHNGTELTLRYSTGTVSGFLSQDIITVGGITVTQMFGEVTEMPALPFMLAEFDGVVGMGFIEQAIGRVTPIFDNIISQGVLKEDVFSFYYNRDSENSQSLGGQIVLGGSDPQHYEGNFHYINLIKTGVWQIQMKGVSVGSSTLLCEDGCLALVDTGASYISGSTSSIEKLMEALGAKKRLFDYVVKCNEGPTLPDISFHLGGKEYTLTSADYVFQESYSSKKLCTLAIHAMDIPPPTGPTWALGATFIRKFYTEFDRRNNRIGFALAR

[2] = Half-life was determined; format: ADME; conditions: human
Renin [3] = biological target: T1, Renin; test: In vitro inhibition of purified human kidney renin
Cathepsin D = Cathepsin D (Homo sapiens, UniProt P07339); test: Selectivity against human cathepsin D
Chain of Cathepsin D (P07339 65-162 limits assumed): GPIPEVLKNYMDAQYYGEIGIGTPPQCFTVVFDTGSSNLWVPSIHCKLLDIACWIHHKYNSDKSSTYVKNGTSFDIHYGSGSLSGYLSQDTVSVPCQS
Chain of Cathepsin D (P07339 169-412 limits assumed): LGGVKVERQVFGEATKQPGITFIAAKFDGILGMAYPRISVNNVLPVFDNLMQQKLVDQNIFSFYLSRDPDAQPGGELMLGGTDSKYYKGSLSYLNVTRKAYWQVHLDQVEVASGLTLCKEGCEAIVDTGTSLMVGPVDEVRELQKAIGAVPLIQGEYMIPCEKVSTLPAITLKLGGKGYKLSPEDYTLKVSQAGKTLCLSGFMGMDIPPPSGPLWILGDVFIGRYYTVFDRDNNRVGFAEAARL

Cathepsin E = biological target: T2, Cathepsin E (Homo sapiens, UniProt P14091); test: Selectivity against human cathepsin E
T2 sequence (P14091 whole entry): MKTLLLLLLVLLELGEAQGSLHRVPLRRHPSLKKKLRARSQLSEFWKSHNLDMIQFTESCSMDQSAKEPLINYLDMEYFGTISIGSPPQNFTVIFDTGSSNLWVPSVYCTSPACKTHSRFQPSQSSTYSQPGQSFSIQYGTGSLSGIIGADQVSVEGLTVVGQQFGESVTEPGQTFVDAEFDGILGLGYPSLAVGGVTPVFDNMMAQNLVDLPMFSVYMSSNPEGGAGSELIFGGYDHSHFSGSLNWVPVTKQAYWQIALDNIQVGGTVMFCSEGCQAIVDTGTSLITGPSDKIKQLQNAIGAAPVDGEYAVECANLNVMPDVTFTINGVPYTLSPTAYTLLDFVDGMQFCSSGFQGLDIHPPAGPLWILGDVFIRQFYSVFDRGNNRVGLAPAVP

Gastricsin = biological target: T3, Gastricsin (Homo sapiens, UniProt P20142); test: Selectivity against human gastricsin
T3 sequence (P20142 whole entry): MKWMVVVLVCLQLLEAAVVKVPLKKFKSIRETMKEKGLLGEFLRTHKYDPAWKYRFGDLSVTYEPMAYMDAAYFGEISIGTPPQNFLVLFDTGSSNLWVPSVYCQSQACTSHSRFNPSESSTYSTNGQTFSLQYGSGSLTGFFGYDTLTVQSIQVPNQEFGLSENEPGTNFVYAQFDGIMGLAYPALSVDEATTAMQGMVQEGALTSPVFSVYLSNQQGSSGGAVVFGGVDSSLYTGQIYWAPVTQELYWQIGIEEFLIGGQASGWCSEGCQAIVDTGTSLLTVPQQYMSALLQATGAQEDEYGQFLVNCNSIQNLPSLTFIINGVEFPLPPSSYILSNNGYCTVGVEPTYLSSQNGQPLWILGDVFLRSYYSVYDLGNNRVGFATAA

Pepsin A = Pepsin A (Homo sapiens, UniProt P0DJD9); test: Selectivity against human pepsin
Chain of Pepsin A (P0DJD9 whole entry): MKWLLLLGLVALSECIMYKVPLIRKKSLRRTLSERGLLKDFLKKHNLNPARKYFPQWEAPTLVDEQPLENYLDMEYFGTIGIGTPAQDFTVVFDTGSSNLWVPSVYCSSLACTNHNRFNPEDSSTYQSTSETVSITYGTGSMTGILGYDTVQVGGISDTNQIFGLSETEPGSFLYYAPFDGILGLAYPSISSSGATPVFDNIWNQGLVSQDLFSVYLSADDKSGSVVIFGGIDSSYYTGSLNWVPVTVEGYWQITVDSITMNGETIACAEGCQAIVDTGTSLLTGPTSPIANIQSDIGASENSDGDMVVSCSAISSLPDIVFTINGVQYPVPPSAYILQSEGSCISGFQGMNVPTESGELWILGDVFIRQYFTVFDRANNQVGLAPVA

Row | SMILES | IC50 (Renin [1]) | half-life [2] | IC50 (Renin [3]) | IC50 (Cathepsin D) | IC50 (Cathepsin E) | IC50 (Gastricsin) | IC50 (Pepsin A)
1 | CC(C)(C)S(=O)(=O)C[C@@H](Cc1ccccc1)C(=O)N[C@@H](Cc1c[nH]cn1)C(=O)N[C@@H](CC1CCCCC1)[C@@H](O)[C@@H](O)CCc1ccccn1 | 0.43 nM | 2.85 h | 0.17 nM | – | – | – | –
2 | O=C(N[C@@H](Cc1cnc[nH]1)C(=O)N[C@@H](CC1CCCCC1)[C@@H](O)[C@@H](O)CCc1ccccn1)[C@@H](CC(=O)N1CCOCC1)Cc1ccccc1 | 1.1 nM | 0.367 h | 1.1 nM | – | – | – | –
3 | NC1CCN(S(=O)(=O)C[C@@H](Cc2ccccc2)C(=O)N[C@@H](Cc2cnc[nH]2)C(=O)N[C@@H](CC2CCCCC2)[C@@H](O)[C@@H](O)CCc2ccccn2)CC1 | 0.54 nM | ~5 h | 0.7 nM | – | – | – | –
4 | CCOC(=O)CCCCC(=O)N[C@@H](Cc1ccccc1)C(=O)N[C@@H](Cc1c[nH]cn1)C(=O)N[C@@H](CC1CCCCC1)[C@@H](O)[C@@H](O)CCc1ccccn1 | 0.75 nM | – | 0.69 nM | – | – | – | –
5 | CSC[C@H](NC(=O)[C@@H](CC(=O)N1CCC(N)CC1)Cc1ccccc1)C(=O)N[C@@H](CC1CCCCC1)[C@@H](O)[C@@H](O)CCc1ccccn1 | 0.25 nM | – | 0.26 nM | – | – | – | –
6 | N[C@H]1CC[C@@H](C(=O)N[C@@H](Cc2ccccc2)C(=O)N[C@@H](Cc2cnc[nH]2)C(=O)N[C@@H](CC2CCCCC2)[C@@H](O)[C@@H](O)CCc2ccccn2)CC1 | 0.47 nM | < 0.05 h | 0.5 nM | – | – | – | –
7 | COc1ccc(C[C@H](NC(=O)[C@H]2CC[C@@H](N)CC2)C(=O)N[C@@H](Cc2cnc[nH]2)C(=O)N[C@@H](CC2CCCCC2)[C@@H](O)[C@@H](O)CCc2ccccn2)cc1 | 5.3 nM | ~1.5 h | 4.2 nM | – | – | – | –
8 | N[C@H]1CC[C@@H](S(=O)(=O)C[C@@H](Cc2ccccc2)C(=O)N[C@@H](Cc2cnc[nH]2)C(=O)N[C@@H](CC2CCCCC2)[C@@H](O)[C@@H](O)CCc2ccccn2)CC1 | 0.31 nM | – | 0.31 nM | – | – | – | –
9 | NC1CCN(C(=O)O[C@@H](Cc2ccccc2)C(=O)N[C@@H](Cc2cnc[nH]2)C(=O)N[C@@H](CC2CCCCC2)[C@@H](O)[C@@H](O)CCc2ccccn2)CC1 | 0.37 nM | – | 0.53 nM | – | – | – | –
10 | NC1CCN(C(=O)C[C@@H](Cc2ccccc2)C(=O)N[C@@H](Cc2c[nH]cn2)C(=O)N[C@@H](CC2CCCCC2)[C@@H](O)[C@@H](O)CCc2ccccn2)CC1 | – | 1.52 h | – | > 100000 nM | > 100000 nM | > 100000 nM | > 100000 nM
11 | CN(CCN(C)C(=O)N1CCOCC1)C(=O)O[C@@H](Cc1ccccc1)C(=O)N[C@@H](Cc1c[nH]cn1)C(=O)N[C@@H](CC1CCCCC1)[C@@H](O)[C@@H](O)CCc1ccccn1 | 0.14 nM | – | 0.16 nM | – | – | – | –
12 | NC1CCN(C(=O)C[C@@H](Cc2cccc3ccccc23)C(=O)N[C@@H](Cc2cnc[nH]2)C(=O)N[C@@H](CC2CCCCC2)[C@@H](O)[C@@H](O)CCc2ccccn2)CC1 | 0.79 nM | – | 0.13 nM | – | – | – | –
13 | CCC[C@H](NC(=O)[C@@H](CC(=O)N1CCC(N)CC1)Cc1ccccc1)C(=O)N[C@@H](CC1CCCCC1)[C@@H](O)[C@@H](O)CCc1ccccn1 | 1.3 nM | – | 0.68 nM | – | – | – | –

Reference: ChEMBL document CHEMBL1127052, “Renin inhibitors containing a pyridyl amino diol derived C-terminus” (J Med Chem, 1993)
